Laboratory results reported in patent US9567371B2, “Short beta-defensin-derived peptides” (Yeda Research and Development Co. Ltd., priority 2009, dated 2017).
Peptide text beside a SMILES is read from it.

Legend:
C57BL/6 mice = experiment: Mobilization assay: WBC number in peripheral blood; type: in vivo, mouse
Procedure: FIG. 2. Dose-response effect of TL-1 and AK-1 on mobilization of WBC. C57BL/6 mice were s.c. injected with 1, 5 or 10 mg/kg of TL-1 or AK-1. Control mice were injected with phosphate buffered saline (PBS). After 1-1.5 h, mice were sacrificed and WBC number in the PB was calculated. Data shown are the mean±SD of 3 separate experiments. *P<0.05 compared to control.
FIG. 4. TL-1 synergizes with G-CSF to mobilize WBC. C57BL/6 mice were s.c. injected with G-CSF 2.5 μg/twice a day for four days. Eighteen hrs after the last injection mice were s.c. injected with 5 mg/kg of either TL-1, AK-1 or AMD3100 (AMD), sacrificed 1.5 h later, and the number of WBC was calculated. Control mice were injected with PBS or with TL-1, AK-1 or AMD3100 without pre-treatment with G-CSF. […]
C57BL/6 mice were injected s.c. with PBS (control), 5 mg/kg AMD3100, or one of the peptides TL-1, cyclic TL-1 and AK-1, at various doses. […] Peripheral blood (PB) was collected from mice by cardiac puncture into heparin containing tubes and the number of white blood cells (WBC) per 1 mL of blood was calculated. […] Colonies, reflecting colony-forming units (CFU), were scored after 7 days.
The cell mobilizing potential of the peptides was examined in intact C57BL/6 mice, using the protocol applied for AMD3100 (Broxmeyer, H. E., et al., 2005). First, the effect of different doses of the peptides was evaluated. […]

U937 cells = experiment: Transwell migration towards SDF-1; type: cell-based, human
Procedure: Various cells (1×10^6/mL), untreated or pretreated with peptides for 3 hrs at 96-well flat bottom plates at 37° C. were washed, 2×10^5 cells/100 μL were added to the upper chambers of Costar 24-well transwell plates with 5 μm pore filters (Corning Inc., Corning, N.Y.) and allowed to migrate for 2-4 hrs at 37° C. (95% humidity, 5% CO2) spontaneously or towards 50 ng/mL SDF-1 (rhSDF-1, Peprotech, Rocky Hill, N.J.) in medium supplemented with 10% FCS. In the chemotaxis assay, untreated cells were added to the upper chambers and the peptides were added to the lower chambers in serum free medium. Migrated cells were collected from the lower chambers and counted using a flow cytometer. Data are presented as a percentage of migrated cells.
To address this issue, the cells were incubated with the peptides for 3 hrs, washed and then allowed to migrate towards SDF-1.

MBA-15 cells = experiment: SDF-1, bFGF and HGF secretion by stromal cells (ELISA of supernatants); type: cell-based, mouse; details: 10 μM
Procedure: (§1) FIGS. 7A-7F. Effect of TL-1, AK-1 and cyclic TL-1 on SDF-1, bFGF and HGF secretion by different stromal cell lines. MS-5, MBA-15 and MG-63 cells were co-cultured with 10 μM TL-1, AK-1 or cyclic TL-1 in the serum free medium for 6 hrs, or without added peptide (UT). Levels of SDF-1 (A-C), bFGF (D) and HGF (E, F) were detected in the collected supernatants by ELISA. Data shown are the mean±SD of 2 separate experiments. *P<0.05 compared to control.
(§2) SDF-1 levels in tested samples were determined by ELISA as described (Kalinkovich, A., et al., 2006) where the K15C monoclonal antibodies (mAb, INRA, Paris, France) recognizing the first three amino acids of SDF-1 were utilized as a capture Ab (10 μg/mL) in order to measure levels of intact, non-cleaved SDF-1. Levels of basic FGF (bFGF) and HGF in tested samples were determined by using corresponding capture mAbs and polyclonal biotynilated Abs (R&D Systems) as recommended by the manufacturer. In order to examine SDF-1, bFGF and HGF levels in cell supernatants, MS-5, MBA-15 and MG-63 cells were seeded in 24-well Costar wells and cultivated in RPMI 1640 or αMEM Eagle medium, respectively, with 10% FCS. When the cells reached confluence, the medium was changed to serum free medium and cells were cultivated for additional 6 hrs in the presence of various concentrations of the peptides. Medium samples were collected and centrifuged 10 min at 6000×g at 4° C. to remove cell debris. Supernatants were collected and kept at −70° C. until tested.
(§3) Because BM stromal cells, such as endosteal bone lining osteoblasts and endothelial cells are the main source of human and murine SDF-1, the capability of the peptides to affect SDF-1 secretion by mouse stromal MS-5 and MBA-15 cells, and human osteoblast MG-63 cells was examined.
(§4) In order to examine the capability of the peptides to induce secretion of other proteins, the levels of Hepatocyte growth factor (HGF) and Basic fibroblast growth factor (bFGF) were detected in the same supernatants.

MS-5 cells = experiment: as above; type: cell-based, mouse; details: 10 μM, compared with untreated cells
Procedure: as §1, §2, §3, §4

N=C(N)NCCC[C@@H]1NC(=O)CNC(=O)[C@H](CCCNC(=N)N)NC(=O)[C@H](CCCCN)NC(=O)[C@H](CCCCN)NC(=O)[C@H](CCCNC(=N)N)NC(=O)[C@H](CCCNC(=N)N)NC(=O)[C@H](CS)NC(=O)[C@H](CS)NC(=O)[C@H](CCCCN)NC1=O [cyclic TL-1, 1,10-cyclo[RGRKCCRRKK]] (cyclo(CCRRKKRGRK))
WBC mobilization upon simultaneous injection with AMD3100 (C57BL/6 mice; 5 mg/kg s.c. each): decreased its mobilizing capacity | WBC mobilization, dose response (C57BL/6 mice; all tested doses: 1, 5 and 10 mg/kg s.c.): did not induce WBC mobilization | SDF-1-induced migration (U937 cells; 1 μM): ineffective | inhibition of SDF-1-induced migration (U937 cells; 10 μM): 2 fold | HGF secretion into supernatants (MBA-15 cells): induced elevation | levels of SDF-1 in supernatants (MBA-15 cells; compared with untreated cells): increased the levels of SDF-1 secretion by MS-5 and MBA-15 cells but much less as compared with TL-1 and AK-1 | levels of SDF-1 in supernatants (MS-5 cells): increased the levels of SDF-1 secretion by MS-5 and MBA-15 cells but much less as compared with TL-1 and AK-1
